In series [1] the test system is TEAD-YAP/TAZ interaction. Put plainly: CTGF ELISA assay. Format: cell-based, human. To be noted: CTGF in culture supernatant of NCI-H2052 cells, 24 hours with compound. The essentials: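 NCI-H2052 cells treated 24 h at 37 °C with compound (10000–0.61 nM, 0.5% DMSO); secreted CTGF in supernatant measured by sandwich ELISA (OD 450 nm) against a standard curve. EC50 fitted from CTGF concentration-response curves.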

Series [2] deals with NCI-H226 cells. Put plainly: BRDU assay (cell proliferation). Format: cell-based. The following applies: Homo sapiens, proliferation inhibition, 1% FBS medium. On the procedure:
PerkinElmer's DELFIA® Cell proliferation kit (PerkinElmer, Cat: AD0200) was used to detect the inhibition on the proliferation of NCI-H226 cells (ATCC, CRL-5826). • a) Seeded 1500/well for NCI-H226 cell into a 96-well plate. • b) After 24 hours, compound was added to wells with 1% FBS medium conditions. The final testing concentrations of test compounds were […]. • c) NCI-H226 cells were incubated for 72 hours in incubator. • d) Diluted BrdU Labeling Reagent 100-fold with medium and added […] per well. The NCI-H226 cells were incubated 24 h in 5% CO2 at 37° C. incubator. • e) Detect cell proliferation according BrdU kit, and the luminescence signal value of each well on the multifunctional microplate reader was readed.
Data analysis: • Use GraphPad Prism 6 software to calculate IC50 and plot effect-dose curve of compounds.
Y=Bottom+(Top−Bottom)/(1+10^((LogIC50−X)×HillSlope)). • Y was the inhibition %, • X was the log concentration of compounds.
Inhibition %=(signalHC−signalcomp)/(signalHC−signalLC); • HC (high control) was DMSO group, • LC (low control) was 10 uM staurosporine group, • Comp was administration group.
IC50 data obtained for the Example compounds are provided in Table 7, and the inhibition curve in NCI-H226 cell line are as shown in FIG. 1-7, wherein X axis is compound concentration (nm), Y axis is the inhibition %.

Series [3] in a line: Body weight change in NCI-H226 xenograft model. Type of series: in vivo, BALB/c nude mice. To be noted: daily oral dosing, 28 days, mice bearing NCI-H226 tumor. On the procedure:
(§1) Each mouse (D000521 BALB/c-Nu, GemPharmatech Co., Ltd.) was inoculated subcutaneously at the right flank with NCI-H226 tumor cells (ATCC, CRL-5826) (1×107) in 0.2 mL of PBS with Matrigel (Corning, 356234) (1:1) for tumor development. Treatments were started when the average tumor size reached approximately 100-150 mm3. The test article was administered to the mice orally once a day from the day of grouping, total 28 days (QD×28 Days). Body weight change of animals was monitored regularly as an indicator of drug safety. Tumor volumes were measured twice weekly in two dimensions using a caliper, and the volume was expressed in mm3 using the formula “V=(LλW^2)/2”, where V is the tumor volume, L is the tumor length (the longest tumor dimension) and W is the tumor width (the longest tumor dimension perpendicular to L). Therapeutic efficacy was evaluated by tumor growth inhibition TGI (%)·TGI (%)=[1−(Ti−T0)/(Vi−V0)]×100; Ti is the average tumor volume of a treatment group on a given day, TO is the average tumor volume of the treatment group on day 0, Vi is the average tumor volume of the vehicle control group on the same day with Ti, and V0 is the average tumor volume of the vehicle group on day 0.

The test system of series [4] is NCI-H226 human lung squamous cell carcinoma xenograft. Put plainly: In vivo efficacy, subcutaneous NCI-H226 xenograft model. To be noted: QD, oral, tumor volume at day 28. On the set-up: species or system BALB/c nude mice. On the procedure:
In vivo pharmacodynamic and efficacy studies of compound 5, compound 6, and compound 124 in the subcutaneous NCI-H226 human lung squamous cell carcinoma xenograft model on BALB/c nude mice.
as §1

Series [5] is described as follows: Pharmacokinetics in plasma following PO cassette dosing in mice. Type of series: in vivo. The following applies: mouse, Balb/C female mice, 5 mg/kg; for AUC: blood collection 30 min, 2 h, 4 h. On the procedure:
Adult Balb/C female mice (6-7 weeks, Vitalriver) were received to cassette dosing of the test compounds with 10-20% DMSO, 10% Solutol (Kolliphor HS 15, Beijing Fengli Jingqiu Pharmaceutical Co., Ltd.) and 80-70% H2O as excipients. The mice (n=3) were giving oral administration (intragastric administration) at a dose of 5 mg/kg. Time of blood collection: 30 min, 2 h, 4 h. About 0.1 mL of whole blood was collected from retro-orbital venous plexus, and placed into tubes that contained EDTA as an anticoagulant. The samples were centrifuged at 4° C. and 4000 rpm for 10 min. The plasma was transferred into centrifuge tubes, and stored at −20° C. before being analyzed. Concentrations of test compounds in the plasma samples were analyzed with liquid chromatography-tandem mass spectrometry (LC-MS/MS). Plasma concentration-time data of individual animals was analyzed using Microsoft Excel 2010. Non-compartmental model was introduced in concentration analysis. The pharmacokinetic parameters of the test compounds were calculated using WinNonlin (version 4.1; Pharsight) software.

The structures appear in SMILES notation.

Usually EC50 stands for the concentration needed to bring the measured effect to its halfway point. The term IC50 denotes the concentration that gives 50% inhibition. Higher therefore signals a need for much substance. Turning to `C=CC(=O)N1CCC(n2nc(-c3ccc(C(F)(F)F)cc3)c3ccccc32)C1` (stereo not shown) [Compound 3, 1-(3-(3-(4-(trifluoromethyl)phenyl)-1H-indazol-1-yl)pyrrolidin-1-yl)prop-2-en-1-one], the 50% effective concentration (EC50) in series [1] is 30.4 nM. The same compound showed an IC50 in series [2] of 19.5 nM.

Take `C=C(F)C(=O)N1CC(n2nc(-c3ccc(C(F)(F)F)cc3)c3cccnc32)C1` [Compound 5, 2-fluoro-1-(3-(3-(4-(trifluoromethyl)phenyl)-1H-pyrazolo[3,4-b]pyridin-1-yl)azetidin-1-yl)prop-2-en-1-one]: the body weight loss entry in series [3] is on record as “no significant body weight loss”. The “TGI (%)” value in series [4] (0.5 mg/kg) is recorded as 40.3%; in series [4] (2 mg/kg), 76.9%; in series [4] (10 mg/kg) it was 101.3%; in series [4] (50 mg/kg) it was 105.9%. For the same compound, the EC50 in series [1] is 3 nM. The compound further yielded a 50% inhibitory concentration (IC50) in series [2] of 5.33 nM.

Consider `C=CC(=O)N1CC(n2nc(-c3ccc(C(F)(F)F)cc3)c3cccnc32)C1` [Compound 30, 1-(3-(3-(4-(trifluoromethyl)phen-yl)-1H-pyrazolo[3,4-b]pyridin-1-yl)azetidin-1-yl)prop-2-en-1-one], for which the EC50 in series [1] was determined as 12 nM. The same compound had a half-inhibitory concentration (IC50) in series [2] of 55.7 nM.

A word on the Cmax: it is the peak of the concentration-time curve. By AUC is commonly meant concentration integrated over time. For `C=C(C)C(=O)N1CC(n2nc(-c3ccc(C(F)(F)F)cc3)c3cccnc32)C1` [Compound 73, 2-methyl-1-(3-(3-(4-(trifluoro-methyl)phenyl)-1H-pyrazolo[3,4-b]pyridin-1-yl)azetidin-1-yl)prop-2-en-1-one], in series [5], the Cmax worked out at 1190 ng/mL and the area under the curve (AUC) turned out to be 4070 ng·h/mL. Moreover, the EC50 in series [1] came to 7 nM. Moreover, it took 114 nM to reach half-maximal inhibition in series [2] (IC50).

For the compound `C=C(F)C(=O)N1CC(n2nc(-c3ccc(C(F)(F)F)cc3)c3ncn(C)c(=O)c32)C1` [Compound 80, 1-(1-(2-fluoroacryloyl)azetidin-3-yl)-6-methyl-3-(4-(trifluorometh-yl)phenyl)-1,6-dihydro-7H-pyrazolo[4,3-d]pyrimidin-7-one], the EC50 in series [1] came to 2 nM. In series [2], this compound registered an IC50 of 2.32 nM.

Take `C=CC(=O)N1CCC(n2nc(-c3ccc(C(F)(F)F)cc3)c3cc(Cl)cnc32)C1` (stereo not shown) [Compound 108, 1-(3-(5-chloro-3-(4-(trifluoro-methyl)phenyl)-1H-pyrazolo[3,4-b]pyridin-1-yl)pyrrolidin-1-yl)-prop-2-en-1-one]: in series [5], the highest concentration (Cmax) was 1200 ng/mL and the AUC was found to be 3500 ng·h/mL. Further, the half-maximal effective concentration (EC50) in series [1] came to 12 nM.

With `C=C(F)C(=O)N1CC(n2nc(-c3ccc(C(F)(F)F)cc3F)c3cccnc32)C1` [Compound 128, 2-fluoro-1-(3-(3-(2-fluoro-4-(trifluoromethyl)phenyl)-1H-pyrazolo[3,4-b]pyridin-1-yl)-azetidin-1-yl)prop-2-en-1-one], in series [5], the Cmax amounted to 5270 ng/mL and the AUC worked out at 19300 ng·h/mL. In addition, the concentration for a half-maximal effect (EC50) in series [1] came out at 9 nM.

In series [5], `C=C(F)C(=O)N1CC(n2nc(-c3ccc(C(F)(F)F)cc3F)c3ncccc32)C1` [Compound 130, 2-fluoro-1-(3-(3-(2-fluoro-4-(trifluoromethyl)phenyl)-1H-pyrazolo[4,3-b]pyridin-1-yl)-azetidin-1-yl)prop-2-en-1-one] registered a peak concentration (Cmax) of 1960 ng/mL and an AUC of 7110 ng·h/mL. Besides, the half-maximal effective concentration (EC50) in series [1] came out at 4 nM.

With `C=C(F)C(=O)N1CC(n2nc(-c3ccc(C(F)(F)F)nc3)c3ncccc32)C1` [Compound 132, 2-fluoro-1-(3-(3-(6-(trifluoro-methyl)pyridin-3-yl)-1H-pyrazolo[4,3-b]pyridin-1-yl)-azetidin-1-yl)prop-2-en-1-one], the concentration for a half-maximal effect (EC50) in series [1] came out at 6 nM. The compound further gave a 50% inhibitory concentration (IC50) in series [2] of 12.7 nM.

In series [5], `C=C(F)C(=O)N1CC(n2nc(-c3ccc(OC(F)(F)F)cc3)c3cccnc32)C1` [Compound 172, 2-fluoro-1-(3-(3-(4-(trifluoro-methoxy)phenyl)-1H-pyrazolo-[3,4-b]pyridin-1-yl)azetidin-1-yl)prop-2-en-1-one] came in with a Cmax of 1650 ng/mL and an AUC of 1650 ng·h/mL. Besides, in series [1], the EC50 came to 0.4 nM.

As for `C=C(F)C(=O)N1CC(n2nc(-c3ccc(S(F)(F)(F)(F)F)cc3)c3cccnc32)C1` [Compound 173, 2-fluoro-1-(3-(3-(4-(pentafluoro-16-sulfanyl)phenyl)-1H-pyrazolo-[3,4-b]pyridin-1-yl)azetidin-1-yl)prop-2-en-1-one], in series [5], the Cmax stood at 1670 ng/mL and the exposure (AUC) worked out at 5960 ng·h/mL. For the same compound, the EC50 in series [1] was determined as 48 nM.

In series [5], `C=C(F)C(=O)N1CC(n2nc(-c3ccc(C(F)(F)F)nc3C)c3cccnc32)C1` [Compound 182, 2-fluoro-1-(3-(3-(2-methyl-6-(trifluoromethyl)pyridin-3-yl)-1H-pyrazolo[3,4-b]pyridin-1-yl)azetidin-1-yl)prop-2-en-1-one] registered a Cmax of 2160 ng/mL and an AUC of 7410 ng·h/mL. In series [1], the 50% effective concentration (EC50) turned out to be 0.394 nM.

In series [5], `C=C(F)C(=O)N1CC(n2nc(-c3ccc(C(F)(F)F)cc3)c3ncn(CC)c(=O)c32)C1` [Compound 218, 6-ethyl-1-(1-(2-fluoroacryloyl)-azetidin-3-yl)-3-(4-(trifluoro-methyl)phenyl)-1,6-dihydro-7H-pyrazolo[4,3-d]pyrimidin-7-one] came in with a Cmax of 1190 ng/mL and an area under the curve (AUC) of 3780 ng·h/mL. Besides, the concentration giving a half-maximal response (EC50) in series [1] came out at 0.7 nM.

In series [5], `C=C(F)C(=O)N1CC(n2c(=O)n(-c3ccc(C(F)(F)F)cc3)c3ccccc32)C1` [Compound 229, 1-(1-(2 fluoroacryloyl)azetidin-3 yl)-3-(4-(trifluoromethyl)phenyl)-1,3-dihydro-2H-benzo[d]imidazol-2-one] came in with a Cmax of 1040 ng/mL and an AUC of 3840 ng·h/mL. In addition, in series [1], the half-maximal effective concentration (EC50) is 20 nM.

Consider `C=C(F)C(=O)N1CC(n2c(=O)n(-c3ccc(C(F)(F)F)cc3)c3nccnc32)C1` [Compound 240, 1-(1-(2-fluoroacryloyl)azetidin-3-yl)-3-(4-(trifluoromethyl)phenyl)-1,3-dihydro-2H-imidazo[4,5-b]pyrazin-2-one], for which, in series [5], the peak level (Cmax) was 1600 ng/mL and the AUC was determined as 5880 ng·h/mL. The half-maximal effective concentration (EC50) in series [1] turned out to be 1.3 nM.

For the compound `C=C(F)C(=O)N1CC(n2c(=O)n(-c3ccc(C(F)(F)F)cc3)c3ccc(C)nc32)C1` [Compound 242, 3-(1-(2-fluoroacryloyl)azetidin-3-yl)-5-methyl-1-(4-(trifluoromethyl)phenyl)-1,3-dihydro-2H-imidazo[4,5-b]pyridin-2-one], in series [5], the Cmax was 1770 ng/mL and the area under the curve (AUC) was determined as 5410 ng·h/mL. In series [1], the 50% effective concentration (EC50) came out at 10 nM.

In series [5], `C=C(F)C(=O)N1CC(n2c(=O)n(-c3ccc(C(F)(F)F)nc3)c3ccc(C)nc32)C1` [Compound 243, 3-(1-(2-fluoroacryloyl)azetidin-3-yl)-5-methyl-1-(6-(trifluoromethyl)pyridin-3-yl)-1,3-dihydro-2H-imidazo[4,5-b]pyridin-2-one] showed a peak concentration (Cmax) of 1210 ng/mL and an exposure (AUC) of 4010 ng·h/mL. The EC50 in series [1] turned out to be 28 nM.

(Values after patent US20230391779A1, “BICYCLIC COMPOUNDS, COMPOSITIONS AND USE THEREOF” (Betta Pharmaceuticals Co., Ltd., priority 2020, published 2023).)
